Data published in US20140094424A1, “MICROBICIDAL COMPOSITIONS AND METHODS OF PRODUCTION USE THEREOF” (priority 2011, published 2014).

Key:
Assay in all cases: MBC (minimum bactericidal concentration) test in Wash NEXT reagent
Type in all cases: cell-based
Pseudomonas putida (K) = tested on: Pseudomonas putida (K)
Experimental: (§1) The stock organisms were thawed and subbed prior to beginning the MBC test. Molds were subbed to SDA plates one week before, and the bacteria were subbed to TAT agar plates 24 hours prior to the start of the test. All plates were incubated at 32 degrees C.
(§2) Each bacterial organism was inoculated into 40 ml sterile saline in a centrifuge tube to create a density of MacFarland #1. Two serial dilutions of 1:100 were then made, resulting in 10^−2 and 10^−4 concentrations. Each dilution was vortexed before it was sampled, and sterile Eppendorf pipette tips were used to make each transfer. The 10^−4 dilution was spiral plated to yield the initial inoculum concentration.
(§3) MBC trays were set up with the prepared test reagent. Using a Matrix pipettor, 100 μl aliquots of reagent were distributed into the wells, diluting the amount of preservative from 100% to 10% increments, using unpreserved reagent as the diluent. In one row, 100% non-preserved reagent acted as a positive control and served as a benchmark for a full mat of growth. In well #12H, 100 μl unpreserved reagent was pipetted, and this well was not inoculated with organisms, as it served as the negative control. Once all of the trays were prepared, the prepared bacteria/mold suspensions were poured into the MBC inoculating trays. These were placed onto the reagent trays, and 0.01 ml inoculum was introduced into the 100 μl of reagent in each well.
(§4) This was done by dipping a sterile cotton swab into each well, and absorbing all of the liquid in the well. The swab was rolled onto a TAT agar plate ensuring that the entire swab touches the agar. Plates ware incubated at 32 degrees C. for 48 hours to 7 days, depending on the organism. Observations for growth were performed by a scoring matrix using + for a full mat, +/− for some growth, a numerical value for an actual colony count, and—for no growth.
(§5) Below are tables that contain the data obtained in Example 1. The MBC test is scored by (+) indicating a full grown mat of organisms, equivalent to the organisms in the unpreserved reagent. (+/−) indicates there is some kill evident disturbing that mat or bringing the quantities down to an almost countable level. An actual number is the actual number of colonies growing at that concentration of preservative. (−) indicates no growth found. The MBC trays were stored at room temperature for the entire test.
(§6) The materials and methods and analysis of the MBC test were the same as in Example 1.

[1] = tested on: Pseudomonas fluorescens (D)
Experimental: as §1, §2, §3, §4, §5, §6

[2] = tested on: Pseudomonas aeruginosa (L)
Experimental: as §1, §2, §3, §4, §5, §6

[3] = at 72 hours, listed as Na Azide

[N-]=[N+]=[N-] [Sodium Azide, sodium azide]
MBC test growth score (Pseudomonas putida (K); 10% preservative, 8 hour): +
MBC test growth score (Pseudomonas putida (K); 10% preservative, 24 hour): +
MBC test growth score (Pseudomonas putida (K); 10% preservative, 48 hour): +
MBC test growth score (Pseudomonas putida (K); 10% preservative, 72 hour): +
MBC test growth score (Pseudomonas putida (K); 20% preservative, 8 hour): +
MBC test growth score (Pseudomonas putida (K); 20% preservative, 24 hour): +
MBC test growth score (Pseudomonas putida (K); 20% preservative, 48 hour): +
MBC test growth score (Pseudomonas putida (K); 20% preservative, 72 hour): +
MBC test growth score (Pseudomonas putida (K); 30% preservative, 8 hour): +
MBC test growth score (Pseudomonas putida (K); 30% preservative, 24 hour): +
MBC test growth score (Pseudomonas putida (K); 30% preservative, 48 hour): +
MBC test growth score (Pseudomonas putida (K); 30% preservative, 72 hour): +
MBC test growth score (Pseudomonas putida (K); 40% preservative, 8 hour): +
MBC test growth score (Pseudomonas putida (K); 40% preservative, 24 hour): +
MBC test growth score (Pseudomonas putida (K); 40% preservative, 48 hour): +
MBC test growth score (Pseudomonas putida (K); 40% preservative, 72 hour): +
MBC test growth score (Pseudomonas putida (K); 50% preservative, 8 hour): +
MBC test growth score (Pseudomonas putida (K); 50% preservative, 24 hour): +
MBC test growth score (Pseudomonas putida (K); 50% preservative, 48 hour): +
MBC test growth score (Pseudomonas putida (K); 50% preservative, 72 hour): +
MBC test growth score (Pseudomonas putida (K); 60% preservative, 8 hour): +
MBC test growth score (Pseudomonas putida (K); 60% preservative, 24 hour): +
MBC test growth score (Pseudomonas putida (K); 60% preservative, 48 hour): +
MBC test growth score (Pseudomonas putida (K); 60% preservative, 72 hour): +
MBC test growth score (Pseudomonas putida (K); 70% preservative, 8 hour): +
MBC test growth score (Pseudomonas putida (K); 70% preservative, 24 hour): +
MBC test growth score (Pseudomonas putida (K); 70% preservative, 48 hour): +
MBC test growth score (Pseudomonas putida (K); 70% preservative, 72 hour): +
MBC test growth score (Pseudomonas putida (K); 80% preservative, 8 hour): +
MBC test growth score (Pseudomonas putida (K); 80% preservative, 24 hour): +
MBC test growth score (Pseudomonas putida (K); 80% preservative, 48 hour): +
MBC test growth score (Pseudomonas putida (K); 80% preservative, 72 hour): +
MBC test growth score (Pseudomonas putida (K); 90% preservative, 8 hour): +
MBC test growth score (Pseudomonas putida (K); 90% preservative, 24 hour): +
MBC test growth score (Pseudomonas putida (K); 90% preservative, 48 hour): +
MBC test growth score (Pseudomonas putida (K); 90% preservative, 72 hour): +
MBC test growth score (Pseudomonas putida (K); 100% preservative, 8 hour): +
MBC test growth score (Pseudomonas putida (K); 100% preservative, 24 hour): +
MBC test growth score (Pseudomonas putida (K); 100% preservative, 48 hour): +
MBC test growth score (Pseudomonas putida (K); 100% preservative, 72 hour): +
total kill at % preservative (MBC) (Pseudomonas putida (K); [3]): No kill @ 100%
MBC test growth score ([1]; 10% preservative, 8 hour): +
MBC test growth score ([1]; 10% preservative, 24 hour): +
MBC test growth score ([1]; 10% preservative, 48 hour): +
MBC test growth score ([1]; 10% preservative, 72 hour): +
MBC test growth score ([1]; 20% preservative, 8 hour): +
MBC test growth score ([1]; 20% preservative, 24 hour): +
MBC test growth score ([1]; 20% preservative, 48 hour): +
MBC test growth score ([1]; 20% preservative, 72 hour): +
MBC test growth score ([1]; 30% preservative, 8 hour): +
MBC test growth score ([1]; 30% preservative, 24 hour): +
MBC test growth score ([1]; 30% preservative, 48 hour): +
MBC test growth score ([1]; 30% preservative, 72 hour): +
MBC test growth score ([1]; 40% preservative, 8 hour): +
MBC test growth score ([1]; 40% preservative, 24 hour): +
MBC test growth score ([1]; 40% preservative, 48 hour): +
MBC test growth score ([1]; 40% preservative, 72 hour): +
MBC test growth score ([1]; 50% preservative, 8 hour): +
MBC test growth score ([1]; 50% preservative, 24 hour): +
MBC test growth score ([1]; 50% preservative, 48 hour): +
MBC test growth score ([1]; 50% preservative, 72 hour): +
MBC test growth score ([1]; 60% preservative, 8 hour): +
MBC test growth score ([1]; 60% preservative, 24 hour): +
MBC test growth score ([1]; 60% preservative, 48 hour): +
MBC test growth score ([1]; 60% preservative, 72 hour): +
MBC test growth score ([1]; 70% preservative, 8 hour): +
MBC test growth score ([1]; 70% preservative, 24 hour): +
MBC test growth score ([1]; 70% preservative, 48 hour): +
MBC test growth score ([1]; 70% preservative, 72 hour): +
MBC test growth score ([1]; 80% preservative, 8 hour): +
MBC test growth score ([1]; 80% preservative, 24 hour): +
MBC test growth score ([1]; 80% preservative, 48 hour): +
MBC test growth score ([1]; 80% preservative, 72 hour): +
MBC test growth score ([1]; 90% preservative, 8 hour): +
MBC test growth score ([1]; 90% preservative, 24 hour): +
MBC test growth score ([1]; 90% preservative, 48 hour): +
MBC test growth score ([1]; 90% preservative, 72 hour): +
MBC test growth score ([1]; 100% preservative, 8 hour): +
MBC test growth score ([1]; 100% preservative, 24 hour): +
MBC test growth score ([1]; 100% preservative, 48 hour): +
MBC test growth score ([1]; 100% preservative, 72 hour): +
total kill at % preservative (MBC) [1, 3]: No kill @ 100%
MBC test growth score ([2]; 10% preservative, 8 hour): +
MBC test growth score ([2]; 10% preservative, 24 hour): +
MBC test growth score ([2]; 10% preservative, 48 hour): +
MBC test growth score ([2]; 10% preservative, 72 hour): +
MBC test growth score ([2]; 20% preservative, 8 hour): +
MBC test growth score ([2]; 20% preservative, 24 hour): +
MBC test growth score ([2]; 20% preservative, 48 hour): +
MBC test growth score ([2]; 20% preservative, 72 hour): +
MBC test growth score ([2]; 30% preservative, 8 hour): +
MBC test growth score ([2]; 30% preservative, 24 hour): +
MBC test growth score ([2]; 30% preservative, 48 hour): +
MBC test growth score ([2]; 30% preservative, 72 hour): +
MBC test growth score ([2]; 40% preservative, 8 hour): +
MBC test growth score ([2]; 40% preservative, 24 hour): +
MBC test growth score ([2]; 40% preservative, 48 hour): +
MBC test growth score ([2]; 40% preservative, 72 hour): +
MBC test growth score ([2]; 50% preservative, 8 hour): +
MBC test growth score ([2]; 50% preservative, 24 hour): +
MBC test growth score ([2]; 50% preservative, 48 hour): +
MBC test growth score ([2]; 50% preservative, 72 hour): +
MBC test growth score ([2]; 60% preservative, 8 hour): +
MBC test growth score ([2]; 60% preservative, 24 hour): +
MBC test growth score ([2]; 60% preservative, 48 hour): +
MBC test growth score ([2]; 60% preservative, 72 hour): +
MBC test growth score ([2]; 70% preservative, 8 hour): +
MBC test growth score ([2]; 70% preservative, 24 hour): +
MBC test growth score ([2]; 70% preservative, 48 hour): +
MBC test growth score ([2]; 70% preservative, 72 hour): +
MBC test growth score ([2]; 80% preservative, 8 hour): +
MBC test growth score ([2]; 80% preservative, 24 hour): +
MBC test growth score ([2]; 80% preservative, 48 hour): +
MBC test growth score ([2]; 80% preservative, 72 hour): +
MBC test growth score ([2]; 90% preservative, 8 hour): +
MBC test growth score ([2]; 90% preservative, 24 hour): +
MBC test growth score ([2]; 90% preservative, 48 hour): +
MBC test growth score ([2]; 90% preservative, 72 hour): +
MBC test growth score ([2]; 100% preservative, 8 hour): +
MBC test growth score ([2]; 100% preservative, 24 hour): +
MBC test growth score ([2]; 100% preservative, 48 hour): +
MBC test growth score ([2]; 100% preservative, 72 hour): +
total kill at % preservative (MBC) [2, 3]: No kill @ 100%
